Data as given in patent US5545648A (Canadian Spinal Research Organization, priority 1992, dated 1996).
“And” between values parts separate entries of the source, which are not always exact repeats. Equal entries are not always repeated. “Also recorded” adds a separate entry of the source.

Tests used:
[1] = tested on: spinal cord injured patients; assay: Deep tendon (segmental) reflex score; assay type: in vivo, human
Experimental: (§1) The schedule of each trial was the same. The patient was admitted to the hospital on the preceding day and in the early morning was assessed by neurological examination and electro-diagnostic evaluation. Administration of the drug or placebo, through an in dwelling venous catheter, was then begun and continued for approximately 2 hours, arranged in 20 minute sequences based on delivery of 1 ml aliquots of the 4-AP solution. The patient was monitored electroencephalographically at frequent intervals throughout the procedure. Samples of blood and urine were obtained from an additional intravenous catheter and from the urinary catheter respectively. Blood was obtained at intervals up to 5 hours from the beginning of drug delivery and urine obtained pre-infusion and at 1 and 2 hours after the beginning of infusion. The patients were re-evaluated by complete neurological examination, by the same examiner, at the end of the period of drug delivery. They were then re-examined with the electrodiagnostic tests. A more limited neurological examination was sometimes performed during drug delivery in an attempt to identify any early changes, without producing significant testing fatigue. The electrodiagnostic tests were repeated at 2 hours after the cessation of drug delivery. Patients showing apparent effects of the treatment remained in the hospital overnight and were examined on the following day. Subsequent contact with the patients was by telephone interview or as a result of their correspondence regarding longer term changes associated with their treatment.
Segmental reflexes (biceps, triceps, knee- and ankle-jerk) were evaluated in the conventional manner with a reflex hammer and scored on a 0-4 point scale:
0--no detectable response
2--brisk response of normal amplitude
3--abnormally large amplitude response
4--large amplitude response with some clonus.
The total possible score in a patient with hyperreflexia and clonus in all tested muscles was 32.

[2] = tested on: spinal cord injured patients; assay: Vibration sensation score; assay type: in vivo, human
Experimental: as §1
(§2) Patients were evaluated using a modified form of the American Spinal Injury Association (ASIA) Standards for Neurological Classification of Spinal Injury Patients (revised 1990). The modifications were mainly required to simplify the examination so that it could be performed on patients lying on a bed with intravenous catheters, electrodes and urethral catheters restricting the range of motion. Examinations performed after the day of drug delivery were made on an outpatient basis with the subjects partially clothed, and evaluation of dermatomes was sometimes incomplete. Each part of the examination was videotaped for later review and was repeated on the two sides of the body.
(§3) Sensory abilities were graded on an analogous 0-4 point scale:
The sensory modalities tested were light touch, pinprick, vibration, joint position, and temperature. The dermatomes tested for touch and pinprick were: C5,6,7,8, T1,T7-9,L1,2,3,4,5, and S1, giving a total possible score of 96 for each modality. Vibration sensation was usually tested bilaterally, at the shoulder, elbow, knee and ankle. Temperature sensation was tested, with the subject's eyes closed, by blowing cool air from a distance or breathing warm air in close proximity on the dorsal surface of the hands and feet. Joint position sense was examined with the subject's eyes closed, by imposed flexion and extension movements of the thumb and great toe. The total possible score for the full sensory examination was 256 points.
Though the examiners assigned half point scores in cases where they felt that subjects fell between score categories, any half point differences between pre- and post-infusion scores have been ignored in this analysis. Also omitted from this tabulation are the scores for vibration sensation, which are shown separately in Table 3. […]

[3] = tested on: spinal cord injured patients; assay: Neurological examination, motor and sensory score (modified ASIA standards), double-blind placebo-controlled crossover study; assay type: in vivo, human; design: key to change in sensory score, -ve / change in sensory score, +ve / change in sensory score, -ve, TOTAL: change in summed sensory points (each item graded 0-4)
Experimental: The experimental design was a double-blind, placebo-controlled, crossover study in which each patient was administered the drug and a vehicle control on different occasions, separated by two weeks. The order of delivery was randomized.
as §1
Two of the patients who reported more prolonged effects of the drug were returned to the hospital after 4 months for a second, unblinded trial, which included neurological examinations daily for 3-4 days. Plasma samples were also obtained daily from these two patients, for measurement of 4-AP.
as §2
Grading of motor abilities was made on the ASIA 0-5 point scale wherever possible:
0--absent (total paralysis)
1--trace (palpable or visible contraction producing little or no movement around joint)
2--poor (active movement through much or all of the normal range of motion, with gravity eliminated--where relevant)
3--fair (active movement through full range of motion against gravity)
4--good (active movement against resistance)
The muscles examined included: deltoid, biceps, triceps, wrist extensors, wrist flexors, finger flexors and extensors (combined), hip flexors (iliopsoas), hip extensors, quadriceps, hamstrings, ankle dorsiflexors (tibiails anterior) and plantarflexors (gastrocnemius, soleus), and toe extensors (extensor hallucis longus). The total possible score for the full motor examination was 130.
as §3
0--absent (no ability to detect the stimulus)
1--trace (patchy or variable ability to detect stimulus with little or no resolution of quality)
2--light (able to detect stimulus but much weaker, or of altered quality relative to equivalent unaffected areas) […]

[4] = tested on: multiple sclerosis patients; details: cited from earlier work
[5] = tested on: surviving myelinated axons of spinal cord; details: single nerve fibers; cited from earlier work
[6] = tested on: spinal cord injury patients; details: cited from earlier work
[7] = tested on: potassium channels; details: cited from earlier work
[8] = tested on: animals with experimental or naturally occurring spinal cord injuries; details: intravenous injection; cited from earlier work
[9] = tested on: spinal cord injured patients; assay: Electrodiagnostic testing (nerve conduction, electromyography, somatosensory evoked potentials); assay type: in vivo, human
Experimental: as §1
Immediately before and after the infusion of 4-AP or placebo, and at approximately 2 hours after the end of the infusion, patients were evaluated with a set of standard electro-diagnostic tests: conduction in peroneal, posterior tibial and sural nerves, electromyography of tibial is anterior and gastroc-nemius muscles during rest and maximal voluntary contraction, and somatosensory evoked potentials. Patients were also monitored with electroencephalography, at intervals during the infusion, to look for evidence of potential for seizure activity.

[10] = 2 hours after infusion of 4-AP, total of subjects
[11] = 2 hours after infusion of 4-AP, total possible 32, one line per subject: b182 RB, SC, HT, LJ, EB, b187 GCh, AW, b189 GCu
[12] = 2 hours after infusion of 4-AP, total of 8 subjects
[13] = 2 hours after infusion of 4-AP, total of 8 subjects, without vibration
[14] = 2 hours after infusion of 4-AP, total possible 130, one line per subject: b160 RB, b161 SC, HT, LJ, EB, GCh, AW, GCu
[15] = 2 hours after infusion of 4-AP, total possible 224, without vibration, one line per subject: b160 RB, b161 SC, HT, LJ, EB, GCh, AW, GCu

**Q.** With Nc1ccncc1 [4-AP, 4-aminopyridine] as the compound, how does the “deep tendon reflex scores at 24 and 48 hours” value ([1]; 24 and 48 hours, EB, GCh) read?
**A.** Its value is “slight reductions in deep tendon reflex scores at 24 and 48 hours after infusion”.

**Q.** What about the “change in score for deep tendon reflexes, arms, TOTAL” value [1, 10] of the same compound?
**A.** Its value is “+13”.

**Q.** What about the “change in score for deep tendon reflexes, legs, TOTAL” value [1, 10] of the same compound?
**A.** Its value is “+2”.

**Q.** What about the “change in score for deep tendon reflexes, legs” value ([1]; 2 hours after infusion of 4-AP, total possible 32, subject one, SC, HT, GCh, AW, GCu) of the same compound?
**A.** Its value is “+2 and +1 and -2 and 0 and +3”.

**Q.** What about the “change in score for deep tendon reflexes, arms” value ([1]; 2 hours after infusion of 4-AP, total possible 32, subject one, SC, HT, GCh, GCu) of the same compound?
**A.** Its value is “+4 and +1 and 0”.

**Q.** What about the “reflex responses at 24 hours” value ([1]; 24 hours, AW, LJ) of the same compound?
**A.** The value was “reduced reflex responses”.

**Q.** And the “deep tendon reflex amplitude immediately after infusion” value ([1]; predominantly in the arms)?
**A.** The value was “marked tendency for increase in amplitude of deep tendon reflexes”.

**Q.** And the “change in total score for vibration sensation, +ve, TOTAL” value [2, 10]?
**A.** Its value is “+1”.

**Q.** And the “change in total score for vibration sensation, -ve, TOTAL” value [2, 10]?
**A.** Its value is -12.

**Q.** What about the “change in total score for vibration sensation, +ve” value [2, 11] of the same compound?
**A.** The value was 0 and +1.

**Q.** And the “change in total score for vibration sensation, -ve” value [2, 11]?
**A.** Its value is 0 and -7 and -4 and -2.

**Q.** What about the “vibration sensation score (in words)” value ([2]; after 4-AP infusion, three subjects) of the same compound?
**A.** The value was “scores in three subjects decreased substantially”.

**Q.** What about the “change in motor score, +ve, TOTAL” value [3, 12] of the same compound?
**A.** Its value is “+26”.

**Q.** And the “change in motor score, -ve, TOTAL” value [3, 12]?
**A.** Its value is 0.

**Q.** What about the “change in sensory score, +ve, TOTAL” value [3, 13] of the same compound?
**A.** The value was “+66”.

**Q.** What about the “change in sensory score, -ve, TOTAL” value [3, 13] of the same compound?
**A.** The value was -7.

**Q.** What about the “change in motor score, +ve” value [3, 14] of the same compound?
**A.** The value was 0 and +4 and +16 and +2.

**Q.** And the “change in motor score, -ve” value [3, 14]?
**A.** Its value is 0.

**Q.** What about the “change in sensory score, +ve” value [3, 15] of the same compound?
**A.** The value was 0 and +3 and +2 and +14 and +27 and +20.

**Q.** What about the “change in sensory score, -ve” value [3, 15] of the same compound?
**A.** The value was 0 and -5 and -2.

**Q.** What about the “initial pinprick response in most distal dermatomes” value ([3]; 2 hours after infusion, second trial) of the same compound?
**A.** Its value is “initial depression of response in the most distal dermatomes”.

**Q.** What about the “pinprick sensation and joint position sense below the lesion” value ([3]; 24 hours, not seen at 2 hours, subject three) of the same compound?
**A.** The value was “striking improvement of pinprick sensation and joint position sense below the lesion”.

**Q.** And the “persistence of motor score increase” value ([3]; 24 hours, second trial, subject four)?
**A.** Its value is “increases in score were sustained at 24 hours after infusion”.

**Q.** What about the “persistence of pinprick improvement” value ([3]; 48 hours post infusion, second trial, EB and GCh) of the same compound?
**A.** Its value is “still detectable at 48 hour post infusion in both cases”.

**Q.** What about the “reversal of sensory effect” value ([3]; 72 hours, subject GCh, second trial) of the same compound?
**A.** Its value is “returned completely to pre-infusion status; also recorded: entirely reversed by 72 hours”.

**Q.** And the “time of maximal motor improvement” value ([3]; after infusion, second trial, subject four (FIG. 5))?
**A.** The value was 2 h.

**Q.** What about the “time of maximal improvement in sensory (pinprick) score” value ([3]; after infusion, second trial, subjects) of the same compound?
**A.** The value was 24 h.

**Q.** And the “motor performance, greater endurance / reversal of leg muscle rigidity effects” value ([3]; second administration, leg muscles, hip and knee)?
**A.** The value was “reduction in the spasticity of leg muscles led at times to a reduction of motor power”.

**Q.** And the “pinprick sensation below level of injury” value ([3]; second, unblinded administration, EB and GCh)?
**A.** Its value is “remarkable increase in the response to pinprick stimulation below the level of injury”.

**Q.** And the “motor strength and sensory deficits” value [4]?
**A.** The value was “selective increases in motor strength and recovery of sensory deficits”.

**Q.** And the “overcoming of conduction block” value [5]?
**A.** Its value is “Some of this conduction block can be overcome”.

**Q.** And the serious side effects ([6]; human, in vivo)?
**A.** The serious side effects was “lack of serious side effects”.

**Q.** And the therapeutic benefit ([6]; mostly electrophysiological level)?
**A.** Its therapeutic benefit is “modest therapeutic benefit”.

**Q.** What about the “spontaneous activity of injured nerve fibres on potassium channel blockade” value [7] of the same compound?
**A.** Its value is “tends to produce or enhance such spontaneous activity and to elicit "burst" (multiple action potential) responses”.

**Q.** What about the “electrophysiological and behavioral function” value [8] of the same compound?
**A.** The value was “significant improvements in electrophysiological (Blight and Gruner, 1987) and behavioral function”.

**Q.** What about the electromyographic data ([9]; after 4-AP) of the same compound?
**A.** The electromyographic data was “consistent with observed changes in strength of muscle contraction”.

**Q.** And the peripheral nerve conduction ([9]; after 4-AP)?
**A.** The peripheral nerve conduction was “No consistent effects on peripheral nerve conduction”.

**Q.** What about the “somatosensory evoked potentials (posterior tibial nerve stimulation), no detectable response” value ([9]; six subjects, before or after injection) of the same compound?
**A.** The value was “no detectable somatosensory evoked potentials”.

**Q.** And the “form or amplitude of somatosensory evoked potentials” value ([9]; subjects, following 4-AP)?
**A.** Its value is “did not change significantly in form or amplitude”.
